The record followed here is patent publication US20170305943A1, “COMPOUNDS FOR THE TREATMENT OF BACTERIAL INFECTIONS” (priority 2014, published 2017).

Holding throughout (assay): Bacterial Assay: Determination of Antibacterial Activity (MIC, broth microdilution or agar dilution)
What all share (type): cell-based
(In general: Broth dilution looks for growth in wells or tubes with falling amounts of substance.)

For assay [1], the system named is Clostridium difficile (Isolate ID ATCC 9689). Conditions: Clostridioides difficile, ATCC9689, 48 h, read-out: C. difficile MIC Activity Range. In outline: (§1)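 MICs were set by CLSI broth microdilution or agar dilution for anaerobes, read visually after 48 hours at 37° C. under anaerobic gas packs. Medium was reinforced clostridial medium with 0.1% defibrinated horse blood; values are binned as A ≦1.01, B >1.0-4.0, C >4.0-16 μg/mL.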

The test system of assay [2] is Clostridium difficile (Isolate ID BI-9). The settings on record: Clostridioides difficile, 48 h, read-out: MIC (μg/mL) C. difficile (B-I9). In outline: as §1
The subject of assay [3] is Clostridium difficile (Isolate ID 027-01). The settings on record: Clostridioides difficile, 48 h, read-out: MIC (μg/mL) C. difficile (027-01). In outline:
as §1

Values after ≈ are worked out from the molar mass of the structure shown. Where only a bound is given, the exact number is not on record here.

`NC(=O)c1c(F)ccc(O[C@H](CO)c2nc(-c3ccc(C(F)(F)F)cc3)c(Br)o2)c1F` (single isomer, unassigned) [Compound 47]: the MIC is under 1.01 µg/mL in assay [1], 0.12 µg/mL (≈ 0.237 µM) in assay [2] and 0.12 µg/mL (≈ 0.237 µM) in assay [3].
Regarding `C#CCCCCCCCCCOc1ccc(F)c(C(N)=O)c1F` [Compound 7, 2,6-difluoro-3-(undec-10-yn-1-yloxy)benzamide], the MIC was under 1.01 µg/mL in assay [1], 0.12 µg/mL (≈ 0.371 µM) in assay [2] and 0.12 µg/mL (≈ 0.371 µM) in assay [3].
For `CCCCCCCCCOc1cccc(C(N)=O)c1F` [Compound 8, 2-fluoro-3-(nonyloxy)benzamide], the MIC in assay [1] is under 1.01 µg/mL; in assay [2] it was 0.25 µg/mL (≈ 0.889 µM); in assay [3], 0.5 µg/mL (≈ 1.78 µM).
In the same order, the values of `C#CCCCCCCCCCOc1cccc(C(N)=O)c1F` [Compound 9, 2-fluoro-3-(undec-10-yn-1-yloxy)benzamide] are under 1.01 µg/mL, 0.5 µg/mL (≈ 1.64 µM) and 1 µg/mL (≈ 3.27 µM).
In the same order, the values of `COc1ccc(-c2csc(COc3ccc(F)c(C(N)=O)c3F)n2)cc1` [Compound 10, 2,6-difluoro-3-{[4-(4-methoxyphenyl)-1,3-thiazol-2-yl]methoxy}benzamide] are 1 to 4 µg/mL (≈ 2.66 to 10.6 µM), 2 µg/mL (≈ 5.31 µM) and 4 µg/mL (≈ 10.6 µM).
In the same order, the values of `NC(=O)c1c(F)ccc(OCc2nc(-c3ccc(Cl)cc3)cs2)c1F` [Compound 11, 3-{[4-(4-chlorophenyl)-1,3-thiazol-2-yl]methoxy}-2,6-difluorobenzamide] are under 1.01 µg/mL, 0.25 µg/mL (≈ 0.657 µM) and 0.25 µg/mL (≈ 0.657 µM).
Turning to `NC(=O)c1c(F)ccc(OCc2nc(-c3ccc(Cl)cc3)c(Br)s2)c1F` [Compound 12, 3-{[5-bromo-4-(4-chlorophenyl)-1,3-thiazol-2-yl]methoxy}-2,6-difluorobenzamide], the MIC in assay [1] is under 1.01 µg/mL; in assay [2] it was 1 µg/mL (≈ 2.18 µM); in assay [3], 1 µg/mL (≈ 2.18 µM).
For `NC(=O)c1c(F)ccc(OCc2nc(-c3ccc(C(F)(F)F)cc3)cs2)c1F` [Compound 16, 2,6-difluoro-3-({4-[4-(trifluoromethyl)phenyl]-1,3-thiazol-2-yl}methoxy)benzamide], the MIC in assay [1] was under 1.01 µg/mL; in assay [2] it was 0.5 µg/mL (≈ 1.21 µM); in assay [3] it was 0.5 µg/mL (≈ 1.21 µM).
On to `NC(=O)c1c(F)ccc(OCc2nc(-c3ccc(OC(F)(F)F)cc3)cs2)c1F` [Compound 17, 2,6-difluoro-3-({4-[4-(trifluoromethoxy)phenyl]-1,3-thiazol-2-yl}methoxy)benzamide], for which the MIC was under 1.01 µg/mL in assay [1], 0.25 µg/mL (≈ 0.581 µM) in assay [2] and 0.185 µg/mL (≈ 0.43 µM) in assay [3].
The matching figures for `NC(=O)c1c(F)ccc(OCc2nc(-c3ccc(Cl)cc3)ns2)c1F` [Compound 19, 3-{[3-(4-chlorophenyl)-1,2,4-thiadiazol-5-yl]methoxy}-2,6-difluorobenzamide]: under 1.01 µg/mL, 2 µg/mL (≈ 5.24 µM) and 1 µg/mL (≈ 2.62 µM).
The matching figures for `NC(=O)c1c(F)ccc(OCc2nc(-c3ccc(OC(F)(F)F)cc3)ns2)c1F` [Compound 20, 2,6-difluoro-3-({3[4-(trifluoromethoxy)phenyl]-1,2,4-thiadiazol-5-yl}methoxy)benzamide]: under 1.01 µg/mL, 0.06 µg/mL (≈ 0.139 µM) and 0.06 µg/mL (≈ 0.139 µM).
As for `N/C(=N\O)c1c(F)ccc(OCc2nc(-c3ccc(Cl)cc3)ns2)c1F` [Compound 21, 3-{[3-(4-chlorophenyl)-1,2,4-thiadiazol-5-yl]methoxy}-2,6-difluoro-N′-hydroxybenzene-carboximidamide], the results for the MIC in assay [1], in assay [2] and in assay [3] were under 1.01 µg/mL, 5 µg/mL (≈ 12.6 µM) and 5 µg/mL (≈ 12.6 µM), respectively.
Take `NC(=O)c1c(F)ccc(OC(CO)c2nc(-c3ccc(Cl)cc3)c(Br)o2)c1F` (stereo not drawn) [Compound 33, 3-{1-[5-bromo-4-(4-chlorophenyl)-1,3-oxazol-2-yl]-2-hydroxyethoxy}-2,6-difluorobenzamide]: the MIC was under 1.01 µg/mL in assay [1], 0.5 µg/mL (≈ 1.06 µM) in assay [2] and 0.12 µg/mL (≈ 0.253 µM) in assay [3].
In the same order, the values of `CN(C)C(=O)OCC(Oc1ccc(F)c(C(N)=O)c1F)c1nc(-c2ccc(C(F)(F)F)cc2)c(Br)o1` (stereo not drawn) [Compound 49, 2-{5-bromo-4-[4-(trifluoromethyl)phenyl]-1,3-oxazol-2-yl}-2-(3-carbamoyl-2,4-difluorophenoxy)ethyl dimethylcarbamate] are 1 to 4 µg/mL (≈ 1.73 to 6.92 µM), 2 µg/mL (≈ 3.46 µM) and 2 µg/mL (≈ 3.46 µM).
As for `CC(=O)OCC(Oc1cccc(C(N)=O)c1F)c1nc(-c2ccc(C(F)(F)F)cc2)c(Br)o1` (stereo not drawn) [Compound 57, 2-{5-bromo-4-[4-(trifluoromethyl)phenyl]-1,3-oxazol-2-yl}-2-(3-carbamoyl-2-fluorophenoxy)ethyl acetate], the MIC in assay [1] is under 1.01 µg/mL; in assay [2], 0.5 µg/mL; in assay [3] it was 0.5 µg/mL.
With `COc1ncccc1CNC(=O)OCC(Oc1ccc(F)c(C(N)=O)c1F)c1nc(-c2ccc(C(F)(F)F)cc2)c(Br)o1` (stereo not drawn) [Compound 74, 2-{5-bromo-4-[4-(trifluoromethyl)phenyl]-1,3-oxazol-2-yl}-2-(3-carbamoyl-2,4-difluorophenoxy)ethyl [(2-methoxypyridin-3-yl)methyl]carbamate], the results for the MIC in assay [1], in assay [2] and in assay [3] were under 1.01 µg/mL, 0.5 µg/mL (≈ 0.745 µM) and 0.5 µg/mL (≈ 0.745 µM), respectively.
Turning to `Cn1cccc1CNC(=O)OCC(Oc1ccc(F)c(C(N)=O)c1F)c1nc(-c2ccc(C(F)(F)F)cc2)c(Br)o1` (stereo not drawn) [Compound 80, 2-{5-bromo-4-[4-(trifluoromethyl)phenyl]-1,3-oxazol-2-yl}-2-(3-carbamoyl-2,4-difluorophenoxy)ethyl [(1-methyl-1H-pyrrol-2-yl)methyl]carbamate], the MIC in assay [1] was under 1.01 µg/mL; in assay [2], 0.5 µg/mL (≈ 0.777 µM); in assay [3] it was 0.5 µg/mL (≈ 0.777 µM).
In the case of `NC(=O)c1c(F)ccc(OCc2cc(-c3ccc(Cl)cc3)cs2)c1F` [Compound 188, 3-{[4-(4-chlorophenyl)thiophen-2-yl]methoxy}-2,6-difluorobenzamide], in assay [1], the MIC was under 1.01 µg/mL.
On the same count and under the same terms, then `CCOC(=O)c1cc(Cl)ccc1-c1csc(COc2ccc(F)c(C(N)=O)c2F)n1` [Compound 190, ethyl 2-{2-[(3-carbamoyl-2,4-difluorophenoxy)methyl]-1,3-thiazol-4-yl}-5-chlorobenzoate], with 4 to 16 µg/mL (≈ 8.83 to 35.3 µM).
The same measure, in the same setting: then `COc1ccc(-c2nc(COc3ccc(F)c(C(N)=O)c3F)sc2-c2cccc(Cl)c2O)cc1` [Compound 191, 3-{[5-(3-chloro-2-hydroxyphenyl)-4-(4-methoxyphenyl)-1,3-thiazol-2-yl]methoxy}-2,6-difluorobenzamide], with 4 to 16 µg/mL (≈ 7.95 to 31.8 µM).
Consider `COc1cc(-c2csc(COc3ccc(F)c(C(N)=O)c3F)n2)ccc1Cl` [Compound 195, 3-{[4-(4-chloro-3-methoxyphenyl)-1,3-thiazol-2-yl]methoxy}-2,6-difluorobenzamide], for which, in assay [1], the MIC was in the range of 4 to 16 µg/mL (≈ 9.74 to 38.9 µM).
In the case of `NC(=O)c1c(F)ccc(OCc2nc(-c3ccc(Cl)c(O)c3)cs2)c1F` [Compound 196, 3-{[4-(4-chloro-3-hydroxyphenyl)-1,3-thiazol-2-yl]methoxy}-2,6-difluorobenzamide], the MIC in assay [1] is 1 to 4 µg/mL (≈ 2.52 to 10.1 µM).
For the compound `COc1ccc(C#Cc2csc(COc3ccc(F)c(C(N)=O)c3F)n2)cc1` [Compound 197, 2,6-difluoro-3-({4-[(4-methoxyphenyl)ethynyl]-1,3-thiazol-2-yl}methoxy)benzamide], in assay [1], the MIC is under 1.01 µg/mL.
For `NC(=O)c1c(F)ccc(OCc2nc(CCc3cccc(Cl)c3)cs2)c1F` [Compound 199, 3-({4-[2-(3-chlorophenyl)ethyl]-1,3-thiazol-2-yl}methoxy)-2,6-difluorobenzamide], the MIC in assay [1] was under 1.01 µg/mL.
As for `Cc1nn(-c2ccc(Cl)cc2)nc1COc1ccc(F)c(C(N)=O)c1F` [Compound 200, 3-{[2-(4-chlorophenyl)-5-methyl-2H-1,2,3-triazol-4-yl]methoxy}-2,6-difluorobenzamide], in assay [1], the MIC fell in the range of 1 to 4 µg/mL (≈ 2.64 to 10.6 µM).
For `NC(=O)c1c(F)ccc(OCc2nc(-c3ccc(Cl)nc3)cs2)c1F` [Compound 201, 3-{[4-(6-chloropyridin-3-yl)-1,3-thiazol-2-yl]methoxy}-2,6-difluorobenzamide], in assay [1], the MIC is 1 to 4 µg/mL (≈ 2.62 to 10.5 µM).
Still for that read-out and setting: then `NC(=O)c1c(F)ccc(OCc2cnn(-c3ccc(Cl)cc3)n2)c1F` [Compound 202, 3-{[2-(4-chlorophenyl)-2H-1,2,3-triazol-4-yl]methoxy}-2,6-difluorobenzamide], with 1 to 4 µg/mL (≈ 2.74 to 11 µM); and `COc1ccc(-c2nc(COc3ccc(F)c(C(N)=O)c3F)oc2-c2cccc(Cl)c2O)cc1` [Compound 204, 3-{[5-(3-chloro-2-hydroxyphenyl)-4-(4-methoxyphenyl)-1,3-oxazol-2-yl]methoxy}-2,6-difluorobenzamide], with 4 to 16 µg/mL (≈ 8.22 to 32.9 µM).
The same measure, in the same setting: the value for `N#Cc1cc(Cl)ccc1-c1csc(COc2ccc(F)c(C(N)=O)c2F)n1` [Compound 206, 3-{[4-(4-chloro-2-cyanophenyl)-1,3-thiazol-2-yl]methoxy}-2,6-difluorobenzamide] was under 1.01 µg/mL; that for `NC(=O)c1c(F)ccc(OCc2nc(-c3ccc(Cl)cc3)c(-c3cccc(O)c3)o2)c1F` [Compound 210, 3-{[4-(4-chlorophenyl)-5-(3-hydroxyphenyl)-1,3-oxazol-2-yl]methoxy}-2,6-difluorobenzamide] was 4 to 16 µg/mL (≈ 8.76 to 35 µM); that for `NC(=O)c1c(F)ccc(OCc2nc(-c3ccc(C(F)(F)F)cc3)c(Br)s2)c1F` [Compound 211, 3-({5-bromo-4-[4-(trifluoromethyl)phenyl]-1,3-thiazol-2-yl}methoxy)-2,6-difluorobenzamide] was 1 to 4 µg/mL (≈ 2.03 to 8.11 µM).
`CC(Nc1ccc(F)c(C(N)=O)c1F)c1nc(-c2ccc(OC(F)(F)F)cc2)c(Br)o1` (stereo not drawn) [Compound 212, 3-[(1-{5-bromo-4-[4-(trifluoromethoxy)phenyl]-1,3-oxazol-2-yl}ethyl)amino]-2,6-difluorobenzamide]: the MIC in assay [1] was in the range of 1 to 4 µg/mL (≈ 1.98 to 7.9 µM).
